In US5137914A, “Sulfonylamino substituted bicyclo [2.2.1]heptane hydroxamic acid derivatives useful as pharmaceuticals” (Shionogi & Co., Ltd., priority 1990, dated 1992):

Experiments:
[1] = tested on: rat washed platelets (thromboxane A2-receptor antagonistic activity); test: Inhibitory Effect on Platelet Aggregation in Rat (washed platelets, collagen-induced, in vitro); type: cell-based, rat (Sprague-Dowley); conditions: 0.05 h, collagen inducer, 37° C., 3 minutes after inducer, Compounds Ia and Ib used as their sodium salts, read-out: Inhibition for Platelet Aggregation IC50
Description: (§1) From the abdominal artery of a male rat (Sprague-Dowley, 7 weeks old) was collected 10 ml of blood with a plastic syringe containing 1.5 ml of ACD (85 mM of sodium citrate, 70 mM of citric acid, 110 mM of glucose) and 20 μg of prostaglandin E1. The blood was placed in a plastic test tube, shaken moderately turning and centrifuged for 10 minutes at 160×g to give platelet rich plasma (PRP). To the prepared PRP was added apyrase (25 μg/ml) and the mixture was layered on 40% bovine serum albumin. The resulting mixture was centrifuged at 1200×g for 25 minutes. The suspension of the prepared platelet pellets in a small amount of a buffer (137 mM of NaCl, 2.7 mM of KCl, 1.0 mM MgCl2, 3.8 mM of NaH2 PO4, 3.8 mM of Hepes, 5.6 mM of glucose, 0.035% of bovine serum albumin, pH 7.35) was applied on 10 ml of Sepharose 2B column and eluted with such a buffer to prepare washed platelets.
(§2) The platelet aggregation reaction was measured by the aggregometer (NKK HEMA TRACER 1 MODEL PAT-6A.6M, Nikkou Bioscience).
In a measuring curvette was placed 245 μl of the washed platelets which concentration was adjusted to […] and set in the aggregometer. The adjusted washed platelets were stirred (1000 rpm) at 37° C. and 3.8 μl of 0.1M CaCl2 was added thereto. One minute later, 0.5 μl of a solution of a test compound in dimethylsulfoxide was added and 2 minutes later, 1 μl of collagen (Collagen reagent Horm®, HORMON-CHEMIE Munchen GMBH, final concentration […]) was added as an inducer for platelet aggregation. Platelet aggregation was monitored in terms of the increase and decrease in light transmission.
Concentration of 50% inhibition for platelet aggregation was calculated from the rate of aggregation. (The rate corresponds to light transmission of a sample which was measured at 3 minutes after adding the inducer for platelet aggregation, provided that light transmissions of the washed platelets and the buffer samples are taken as 0% and 100%, respectively.)

rat platelet = test: Partial agonistic activity (activity to induce the shape change in rat platelet); type: cell-based; conditions: decrease in light transmission, rat washed platelets, 0.1M CaCl2, read-out: ED50 of partial agonistic activity (shape change)
Description: as §1, §2
Furthermore, partial agonistic activity (activity to induce the shape change in rat platelet) was determined according to the method used for the reaction of platelet aggregation. To the washed platelets was added 0.1M CaCl2 aqueous solution and 1 minute later, the decrease in light transmission caused by the test compounds was determined to estimate the activity.

mice = test: Respiration inhibitory activity on intravenous injection to mice (index of partial agonistic activity); type: in vivo; conditions: intravenously injected to mice

| Compound | IC50 [1] | EC50 (rat platelet) | partial agonistic activity by determination of respiration inhibitory activity (mice) |
| --- | --- | --- | --- |
| O=C(CCC/C=C\C[C@H]1[C@@H]2CC[C@@H](C2)[C@@H]1NS(=O)(=O)c1ccc(O)cc1)NO [Ib, (1R,2S,3S,4S)-(5Z)-7-[3-(4-hydroxyphenylsulfonylamino)bicyclo[2.2.1]hept-2-yl]-5-heptenohydroxamic acid] | 10 nM |  |  |
| O=C(CCC/C=C\C[C@H]1[C@@H]2CC[C@@H](C2)[C@@H]1NS(=O)(=O)c1ccccc1)NO [Ia, (1R,2S,3S,4S)-(5Z)-7-(3-phenylsulfonyl-aminobicyclo[2.2.1]hept-2-yl)-5-heptenohydroxamic acid] | 12 nM |  | substantially no partial agonistic activity |
| CONC(=O)CCC/C=C\C[C@H]1[C@@H]2CC[C@@H](C2)[C@@H]1NS(=O)(=O)c1ccccc1 [Ie, (1R, 2S, 3S, 4S)-(5Z)-0-methyl-7-[3-phenylsulfonylaminobicyclo[2.2.1]hept-2-yl]-5-heptenohydroxamic acid] | 60 nM |  |  |
| O=C(CCC/C=C\[C@@H]1[C@H]2CC[C@H](C2)[C@H]1CNS(=O)(=O)c1ccc(Br)cc1)NO [Ic, (1S, 2S, 3R, 4R)-(5Z)-6-[3-(4-bromophenylsulfonylaminomethyl)bicyclo[2.2.1]hept-2-yl]-5-hexenohydroxamic acid] | 20 nM |  |  |

Further lines, with some results ahead:

| IC50 [1] | EC50 (rat platelet) | Compound | partial agonistic activity by determination of respiration inhibitory activity (mice) |
| --- | --- | --- | --- |
| 2 nM | 1 nM | Cc1ccc(S(=O)(=O)N[C@H]2[C@H]3CC[C@H](C3)[C@@H]2C/C=C\CCCC(=O)O)cc1 [Rf. Compd., reference compound] |  |
| 20 nM |  | CN(O)C(=O)CCC/C=C\C[C@H]1[C@@H]2CC[C@@H](C2)[C@@H]1NS(=O)(=O)c1ccccc1 [If, (1R, 2S, 3S, 4S)-(5Z) -N-methyl-7-(3-phenylsulfonylaminobicyclo[2.2.1]hept-2-yl)-5-heptenohydroxamic acid] |  |
